According to publication PMC6156121 (Science Advances, 2018):

How the values were obtained:
Assay in all cases: IP kinase assay, GST-P70S6K peptide, anti-p-P70S6K Thr389 immunoblot
Format in all cases: biochemical
Conditions in all cases: […] inhibitor, […] ATP, […] MgCl2, pH […] C; ATP-competitive
mTORC1 = mTORC1 (Homo sapiens, UniProt P42345)
mTORC2 = mTORC2 (Homo sapiens, UniProt P42345)
mTORC3 = mTORC3 (Homo sapiens, UniProt P42345)

SMILES	IP kinase assay, GST-P70S6K peptide, anti-p-P70S6K Thr389 immunoblot (mTORC1)	IP kinase assay, GST-P70S6K peptide, anti-p-P70S6K Thr389 immunoblot (mTORC2)	IP kinase assay, GST-P70S6K peptide, anti-p-P70S6K Thr389 immunoblot (mTORC3)
COc1ccc(-c2ccc3c(N4CCOC[C@@H]4C)nc(N4CCOC[C@@H]4C)nc3n2)cc1CO [AZD-8055]	inhibited the kinase activity of all mTORCs	inhibited the kinase activity of all mTORCs	preincubation with OSI-27 or AZD-8055 at an mTOR-specific concentration inhibited the kinase activity
COc1cccc2cc(-c3nc([C@H]4CC[C@H](C(=O)O)CC4)n4ncnc(N)c34)[nH]c12 [OSI-27]	inhibited the kinase activity of all mTORCs	inhibited the kinase activity of all mTORCs	preincubation with OSI-27 or AZD-8055 at an mTOR-specific concentration inhibited the kinase activity
